Results reported in patent US20220119440A1, “PEPTIDE AND METHOD FOR MANUFACTURING SAME” (AGC Inc., priority 2019, published 2022).
Read-outs that look alike come from different tables or passages of the source. Peptide text beside a SMILES is read from it. * marks the point of attachment. NHBn = c1ccc(CN*)cc1

What was measured:
[1] = MDCK-II assay (cell monolayer assay); type: in vitro ADME; details: dog
Procedure: (§1) Further, with respect to the peptides synthesized in Examples 14, 15 and 17 and Comparative Examples 5,6 and 8, MDCK-II assay was conducted. For the MDCK-II assay, propranolol (CAS No: 318-98-9) was used as a positive control (“PC”) and Norfloxacin (CAS No: 70458-96-7) as a negative control (“NC”).
MDCK-II cells were seeded on Cell Culture Inserts (Falcon) at 5.04×10^4 cells/mL, and 5 days after seeding, cell monolayer assay (MDCK-II assay) was conducted. The peptide stock solution was prepared at 2 mM in DMSO solution, and diluted with HBSS containing 20 mM of HEPES (pH 7.5) to prepare a 2 μM peptide solution using as a solvent 0.1% DMSO/HBSS (+), as a donor solution. The acceptor solution was a 0.1% DMSO solution using as a solvent HBSS (+) containing 20 mM of HEPES (pH 7.5). […] The peptide concentration was analyzed by LC/MS. The experiment was conducted repeatedly three times. The permeability (Papp) was calculated in accordance with the following formula.
A: filter area (0.3 cm^2) VB: basolateral well volume (0.75 cm^3) t: incubation time (s) (2 hours=7200 s) C0: initial concentration in apical chamber (2 μM) CB (t): basolateral compound concentration at time t

[2] = PAMPA (Parallel Artificial Membrane Permeability Assay); type: in vitro ADME
Procedure: as §1
Permeability of the peptides was evaluated by PAMPA. In the PAMPA, 300 μL of a 5% DMSO-containing PBS was added to the respective wells of an accepter plate (MultiScreen 96-well transport receiver plate, manufactured by Merck), and 150 μL of a peptide solution (20 μM) dissolved in 5% DMSO/PBS was added to the respective wells of a donor plate (MultiScreen-IP filter plate, 0.45 μm, manufactured by Merck). A dodecane solution of 1% lecithin (from soybean) was subjected to ultrasonic treatment for 30 minutes before use, and 5 μL of the solution was applied to the membrane support (PVDF) of the respective wells of the donor plate. The donor plate was placed on the acceptor plate, and the plates were left to stand in an incubator at 25° C. for 18 hours. The peptide concentration was determined by LC/MS. The experiment was conducted repeatedly three times. The permeability (Pe) was calculated in accordance with the following formulae.
A: filter area (0.3 cm^2) VD: volume of donor well (0.15 cm^3) VA: volume of acceptor well (0.3 cm^3) t: incubation time (s) (18 hours=64800 s) CD (t): compound concentration in donor well at time t CA (t): compound concentration in acceptor well at time t

[3] = MDCK-II monolayer, 2 μM peptide, apical side to basolateral side, 37° C., 5% CO2, 2 hours, repeated three times, read-out: Papp
[4] = peptide 20 μM in 5% DMSO/PBS, 1% lecithin in dodecane on PVDF, 25° C. for 18 hours, repeated three times, read-out: Pe

Papp A→B at 2 h, 2 μM ([1]; MDCK) | Papp at 18 h, 20 μM [2] | SMILES | Papp A→B at 2 h, 2 μM [1, 3] | Papp at 18 h, 20 μM [2, 4]
1.23 ×10⁻⁶ cm/s | – | CC(=O)N[C@@H](C)C(=O)N[C@@H](C)C(=O)NCc1ccccc1 [Comparative Example 5, Ac-L-Ala-L-Ala-NHBn, reference compound] (Ac-Ala-Ala-NHBn) | – | –
– | ≤ 0.003 ×10⁻⁶ cm/s | CC(=O)N[C@H](C(=O)N[C@@H](C)C(=O)N(C)C)C(C)C [Comparative Example 7, Ac-L-Val-L-Ala-NMe2, reference compound] (Ac-Val-Ala-NMe2) | – | –
7.12 ×10⁻⁶ cm/s | 0.07 ×10⁻⁶ cm/s | CC(=O)N[C@H](C(=O)N[C@@H](Cc1ccccc1)C(=O)NCC(C)C)C(C)C [Comparative Example 8, Ac-L-Val-L-Phe-iBu, reference compound] | – | –
– | – | CC(=O)NC(C(=O)N[C@@H](C)C(=O)NCc1ccccc1)C(F)(F)F (stereo partly drawn) [Example 14, Ac-D,L-Ala (F3)-L-Ala-NHBn] | 3.26 ×10⁻⁶ cm/s | –
– | – | CC(=O)NC(C(=O)N[C@@H](Cc1ccccc1)C(=O)NCC(C)C)C(F)(F)F (stereo partly drawn) [Example 15, Ac-D,L-Ala (F3)-L-Phe-iBu] | 9.86 ×10⁻⁶ cm/s | 0.19 ×10⁻⁶ cm/s
– | – | CC(=O)NC(C(=O)N[C@@H](C)C(=O)N(C)C)C(C(F)(F)F)C(F)(F)F (stereo partly drawn) [Example 16, Ac-D,L-Val (F6)-L-Ala-NMe2] | – | 0.04 ×10⁻⁶ cm/s
– | – | CC(=O)NC(C(=O)N[C@@H](Cc1ccccc1)C(=O)NCC(C)C)C(C(F)(F)F)C(F)(F)F (stereo partly drawn) [Example 17, Ac-D,L-Val (F6)-L-Phe-iBu] | 8.38 ×10⁻⁶ cm/s | 1.57 ×10⁻⁶ cm/s
